Results: PubChem BioAssay (NCI)
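Grown in 96-well plates, cells were treated for 48 hours with each compound at five concentrations. Insufficient inhibition: endpoint recorded as highest concentration tested. At the TGI there is no net growth.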

Key:
Assay in all cases: NCI-60 cell line screen, 48 h
HCT-116 colon = test system: HCT-116 colon
SN12C renal = test system: SN12C renal
UACC-62 melanoma = test system: UACC-62 melanoma
SK-MEL-28 melanoma = test system: SK-MEL-28 melanoma
U251 CNS = test system: U251 CNS
UACC-257 melanoma = test system: UACC-257 melanoma
KM20L2 colon = test system: KM20L2 colon
HT29 colon = test system: HT29 colon
NCI-H522 lung = test system: NCI-H522 lung
SF-539 CNS = test system: SF-539 CNS
OVCAR-4 ovarian = test system: OVCAR-4 ovarian
HCT-15 colon = test system: HCT-15 colon
CAKI-1 renal = test system: CAKI-1 renal
786-0 renal = test system: 786-0 renal
RXF 393 renal = test system: RXF 393 renal
SR leukemia = test system: SR leukemia
DMS 273 small cell lung = test system: DMS 273 small cell lung
SW-620 colon = test system: SW-620 colon
MALME-3M melanoma = test system: MALME-3M melanoma
CCRF-CEM leukemia = test system: CCRF-CEM leukemia
NCI-H226 lung = test system: NCI-H226 lung
DLD-1 colon = test system: DLD-1 colon
HOP-18 NSCLC = test system: HOP-18 NSCLC
NCI-H23 lung = test system: NCI-H23 lung
UO-31 renal = test system: UO-31 renal
K-562 leukemia = test system: K-562 leukemia
SF-295 CNS = test system: SF-295 CNS
LXFL 529 NSCLC = test system: LXFL 529 NSCLC
COLO 205 colon = test system: COLO 205 colon
SNB-78 CNS = test system: SNB-78 CNS
HCC-2998 colon = test system: HCC-2998 colon
OVCAR-8 ovarian = test system: OVCAR-8 ovarian
IGROV1 ovarian = test system: IGROV1 ovarian
ACHN renal = test system: ACHN renal
SK-OV-3 ovarian = test system: SK-OV-3 ovarian
HOP-92 NSCLC = test system: HOP-92 NSCLC
HL-60(TB) leukemia = test system: HL-60(TB) leukemia
A498 renal = test system: A498 renal
KM12 colon = test system: KM12 colon
SNB-75 CNS = test system: SNB-75 CNS
SK-MEL-5 melanoma = test system: SK-MEL-5 melanoma
MOLT-4 leukemia = test system: MOLT-4 leukemia
EKVX NSCLC = test system: EKVX NSCLC
OVCAR-3 ovarian = test system: OVCAR-3 ovarian
NCI-H460 lung = test system: NCI-H460 lung
LOX IMVI melanoma = test system: LOX IMVI melanoma
RPMI-8226 leukemia = test system: RPMI-8226 leukemia
SF-268 CNS = test system: SF-268 CNS
OVCAR-5 ovarian = test system: OVCAR-5 ovarian
HOP-62 NSCLC = test system: HOP-62 NSCLC
RXF-631 renal = test system: RXF-631 renal
SNB-19 CNS = test system: SNB-19 CNS
SK-MEL-2 melanoma = test system: SK-MEL-2 melanoma
DMS 114 small cell lung = test system: DMS 114 small cell lung
A549 NSCLC = test system: A549 NSCLC
M14 melanoma = test system: M14 melanoma

`Cc1ccc(N=Nc2c(-c3ccccc3)nn(C(=O)CC(=O)Nc3ccc(Cl)cc3)c2-c2ccccc2)cc1` showed a TGI (HCT-116 colon) of over 100 µM, a TGI (SN12C renal) of over 100 µM and a TGI (UACC-62 melanoma) of over 100 µM. The TGI (SK-MEL-28 melanoma) was over 100 µM, the TGI (U251 CNS) was over 100 µM and the TGI (UACC-257 melanoma) was over 100 µM. The TGI (KM20L2 colon) was over 100 µM, the TGI (HT29 colon) was over 100 µM and the TGI (NCI-H522 lung) was over 100 µM. For the same compound, the TGI (SF-539 CNS) was over 100 µM, the TGI (OVCAR-4 ovarian) was over 100 µM and the TGI (HCT-15 colon) was over 100 µM. For the same compound, the TGI (CAKI-1 renal) was over 100 µM, the TGI (786-0 renal) was over 100 µM and the TGI (RXF 393 renal) was 99.6 µM. It also gave a TGI (SR leukemia) of 57.3 µM, a TGI (DMS 273 small cell lung) of over 100 µM and a TGI (SW-620 colon) of over 100 µM. It also gave a TGI (MALME-3M melanoma) of over 100 µM, a TGI (CCRF-CEM leukemia) of 72.5 µM and a TGI (NCI-H226 lung) of over 100 µM. The TGI (DLD-1 colon) was over 100 µM, the TGI (HOP-18 NSCLC) was over 100 µM and the TGI (NCI-H23 lung) was over 100 µM. It also gave a TGI (UO-31 renal) of 86.3 µM, a TGI (K-562 leukemia) of over 100 µM and a TGI (SF-295 CNS) of over 100 µM. The TGI (LXFL 529 NSCLC) was 94.5 µM, the TGI (COLO 205 colon) was over 100 µM and the TGI (SNB-78 CNS) was over 100 µM. For the same compound, the TGI (HCC-2998 colon) was over 100 µM, the TGI (OVCAR-8 ovarian) was over 100 µM and the TGI (IGROV1 ovarian) was over 100 µM. For the same compound, the TGI (ACHN renal) was over 100 µM, the TGI (SK-OV-3 ovarian) was over 100 µM and the TGI (HOP-92 NSCLC) was 66.9 µM. The TGI (HL-60(TB) leukemia) was over 100 µM, the TGI (A498 renal) was 94.9 µM and the TGI (KM12 colon) was over 100 µM. For the same compound, the TGI (SNB-75 CNS) was 73.5 µM, the TGI (SK-MEL-5 melanoma) was over 100 µM and the TGI (MOLT-4 leukemia) was 79.1 µM. The TGI (EKVX NSCLC) was 18.3 µM, the TGI (OVCAR-3 ovarian) was 99.6 µM and the TGI (NCI-H460 lung) was over 100 µM. For the same compound, the TGI (LOX IMVI melanoma) was over 100 µM, the TGI (RPMI-8226 leukemia) was 86.7 µM and the TGI (SF-268 CNS) was over 100 µM. The TGI (OVCAR-5 ovarian) was over 100 µM, the TGI (HOP-62 NSCLC) was over 100 µM and the TGI (RXF-631 renal) was over 100 µM. For the same compound, the TGI (SNB-19 CNS) was over 100 µM, the TGI (SK-MEL-2 melanoma) was over 100 µM and the TGI (DMS 114 small cell lung) was over 100 µM. The TGI (A549 NSCLC) was over 100 µM and the TGI (M14 melanoma) was over 100 µM.
